Where “and” joins values, the source holds several entries; their conditions need not be identical. Equal values may be shown once.
Biological target: T1, MAO-B (Rattus norvegicus, UniProt P19643)
T1 construct: The crude enzyme was extracted from the liver of 200–250 g of Wistar rats; from tissue; host or cells: liver of Wistar rats (crude enzyme)
T1 sequence (P19643 1-520): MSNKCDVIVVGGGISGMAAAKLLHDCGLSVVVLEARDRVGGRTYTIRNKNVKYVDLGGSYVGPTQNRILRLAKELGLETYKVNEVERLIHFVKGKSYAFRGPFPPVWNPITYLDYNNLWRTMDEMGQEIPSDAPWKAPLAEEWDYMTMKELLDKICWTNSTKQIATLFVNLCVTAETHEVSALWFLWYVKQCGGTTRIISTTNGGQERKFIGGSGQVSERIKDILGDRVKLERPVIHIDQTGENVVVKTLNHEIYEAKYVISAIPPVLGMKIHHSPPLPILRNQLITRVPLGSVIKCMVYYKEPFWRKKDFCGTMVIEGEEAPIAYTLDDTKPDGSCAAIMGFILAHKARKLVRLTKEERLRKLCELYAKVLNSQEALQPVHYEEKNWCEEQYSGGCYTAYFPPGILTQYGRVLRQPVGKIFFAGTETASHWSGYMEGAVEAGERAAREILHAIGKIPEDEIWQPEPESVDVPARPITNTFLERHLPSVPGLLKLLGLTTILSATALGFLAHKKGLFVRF
Experiment: In vitro MAO inhibitory activity (Holt method, crude enzyme from rat liver)
Assay type: biochemical, Wistar rat
Settings: rat liver crude enzyme, 4-(trifluoromethyl)benzylamine substrate, mean ± SD (n = 3); read-out: IC50 value MAO-B inhibitory activity
Method: The MAO inhibitory activity of the 3-arylbenzofuranone compounds was determined by the method of Holt et al.[17] with slight modifications. The crude enzyme was extracted from the liver of 200–250 g of Wistar rats according to literature methods[18]^,[19]. The crude enzyme protein content was determined by the Bradford method using a Bradford Protein Assay Kit (Beyotime). The assay was performed in 0.2 M potassium phosphate buffer pH 7.6 on 96-well plates in 240 μl total volume. The chromogenic solution containing 1 mM vanillic acid, 0.5 mM 4-aminoantipyrine, and 4 U/ml horseradish peroxidase in 0.2 M potassium phosphate buffer pH 7.6 was mixed anew for each measurement. 40 μL of enzyme solution and 40 μL of sample solution were added to a 96-well plate. The solution was then incubated at 37 °C for 20 min. 120 μL of the 4-(trifluoromethyl) benzylamine solution and 40 μL of the chromogenic solution were added subsequently and incubated at 37 °C for 90 min. The absorbance was measured at 490 nm using a microplate reader, and the inhibition rate of MAO and the IC50 value of each sample were calculated according to the formula. The control group replaced the sample solution with PBS (0.2 M, pH = 7.6), the positive control replaced the sample with the positive drug, and the blank group replaced the substrate with PBS, and each group was measured three times in parallel to average. Monoamine oxidase inhibitory effect (%) = [(AC – AB) – (AS – ASB )]/(AC – AB)×100% where AC is the absorbance of control group; AB is the absorbance of blank group; AS is the absorbance of sample group; ASB is the absorbance of sample blank group.

Structure (SMILES)	IC50 [µM]
COc1ccc(C2C(=O)Oc3cc(O)ccc32)cc1 (stereo not shown) [Compound 1, 6-Hydroxyl-3–(4′-methoxyphenyl)-benzofuranone]	61.3 ± 0.79
COc1cc2c(cc1O)C(c1cc(OC)c(OC)c(OC)c1)C(=O)O2 (stereo not shown) [Compound 23, 5-Hydroxy-6-methoxy-3–(3′,4′,5′-trimethoxyphenyl)-benzofuranone]	43.9 ± 1.26
COc1cc(C2C(=O)Oc3c2ccc(O)c3O)cc(OC)c1OC (stereo not shown) [Compound 20, 6,7-Dihydroxy−3–(3′,4′,5′-trimethoxyphenyl)-benzofuranone]	149 ± 3.39
COc1ccc2c(c1)OC(=O)C2c1cc(OC)c(OC)c(OC)c1 (stereo not shown) [Compound 16, 6-Methoxy-3–(3′,4′,5′-trimethoxyphenyl)-benzofuranone]	> 500
COc1ccc(C2C(=O)Oc3ccc(OC)cc32)cc1 (stereo not shown) [Compound 4, 5-Methoxy-3–(4′-methoxyphenyl)-benzofuranone]	383 ± 5.08
COc1ccc(C2C(=O)Oc3cc(OC)ccc32)cc1 (stereo not shown) [Compound 3, 6-Methoxy-3–(4′-methoxyphenyl)-benzofuranone]	298 ± 5.4
COc1ccc(C2C(=O)Oc3cc(O)ccc32)cc1OC (stereo not shown) [Compound 6, 6-Hydroxy-3–(3′,4′-dimethoxyphenyl)-benzofuranone]	48.6 ± 2.02

System: not listed separately
Experiment: In vitro antioxidant activity (DPPH radical scavenging)
Settings: DPPH free radical scavenging, 30 min at 37 °C, mean ± SD (n = 3)
Method: The assay provides an assessment of the antioxidant activity due to free radical scavenging by measuring hydrogen atom (or one electron) donating activity. DPPH is a purple stable free radical that is reduced to a yellow-coloured diphenylpicryl hydrazine by an antioxidant. The spectrophotometric assay was carried out as described by the literature method with a slight modification. 100 μL of a sample solution was added to 100 μL of DPPH solution. Following 30 min of incubation at 37 °C and protection from light, the absorbance at 517 nm was determined using a microplate reader. Each group was measured three times in parallel to average. IC50 values were calculated. The percentage of DPPH radical scavenging rate of the target compound is calculated as follows: DPPH free radical scavenging effect (%)=[A0 – (A1−A2)]/A0×100% where A0 is the absorbance of blank group; A1 is the absorbance of sample group; A2 is the absorbance of sample blank group.

Structure (SMILES)	IC50 [µM]
COc1ccc(C2C(=O)Oc3cc(O)ccc32)cc1 (stereo not shown) [Compound 1, 6-Hydroxyl-3–(4′-methoxyphenyl)-benzofuranone]	13.3 ± 0.27
COc1cc2c(cc1O)C(c1cc(OC)c(OC)c(OC)c1)C(=O)O2 (stereo not shown) [Compound 23, 5-Hydroxy-6-methoxy-3–(3′,4′,5′-trimethoxyphenyl)-benzofuranone]	11.9 ± 0.16
COc1cc(C2C(=O)Oc3c2ccc(O)c3O)cc(OC)c1OC (stereo not shown) [Compound 20, 6,7-Dihydroxy−3–(3′,4′,5′-trimethoxyphenyl)-benzofuranone]	42.6 ± 2.58
COc1ccc2c(c1)OC(=O)C2c1cc(OC)c(OC)c(OC)c1 (stereo not shown) [Compound 16, 6-Methoxy-3–(3′,4′,5′-trimethoxyphenyl)-benzofuranone]	18 ± 0.48
COc1ccc(C2C(=O)Oc3ccc(OC)cc32)cc1 (stereo not shown) [Compound 4, 5-Methoxy-3–(4′-methoxyphenyl)-benzofuranone]	33.1 ± 1.45
COc1ccc(C2C(=O)Oc3cc(OC)ccc32)cc1 (stereo not shown) [Compound 3, 6-Methoxy-3–(4′-methoxyphenyl)-benzofuranone]	11.8 ± 0.18
O=C1O[C@H]([C@@H](O)CO)C(O)=C1O [Ascorbic acid, reference compound]	7.69 ± 0.1

Biological target: BChE from equine serum (Equus caballus, UniProt P81908)
Experiment: biochemical
Assay type: biochemical
Settings: equine serum BChE, Ellman method, mean ± SD (n = 3); read-out: IC50 value BuChE inhibitory activity
Method: (§1) The anticholinesterase activity of the 3-arylbenzofuranone compounds was determined by the method of Ellman et al.[16] with slight modifications. […] Acetylthiocholine iodide and butyrylthiocholine iodide were used as substrates respectively. 5,5′-Dithiobis(2-nitrobenzoic acid) (DTNB) was used as the chromophoric reagent. To a 96-well plate, 120 µL of phosphate buffer solution (0.1 M, pH = 8.0, PBS), 20 µL of DTNB (3.3 mM in 0.1 M PBS, pH = 8.0) were added sequentially, 20 µL AChE solution (0.2 U/mL in 0.1 M PBS, pH = 8.0), 20 µL of different concentrations of the sample solution, shaken well, and incubated at 37 °C for 5 min. Then, 20 µL of substrate (5 mM in 0.1 M PBS, pH = 8.0) were added, shaken well, and incubated at 37 °C for 20 min. […] BChE inhibitory activity was assessed similarly using butyrylthiocholine iodide as the substrate. The sample solution was set to five concentration gradients and the experiment was repeated three times. […] Cholinesterase inhibitory effect (%)=[A0−(A1−A2)]/A0×100% where A0 is the absorbance of blank group; A1 is the absorbance of sample group; A2 is the absorbance of sample blank group.

BChE from equine serum, sequence (P81908 whole entry): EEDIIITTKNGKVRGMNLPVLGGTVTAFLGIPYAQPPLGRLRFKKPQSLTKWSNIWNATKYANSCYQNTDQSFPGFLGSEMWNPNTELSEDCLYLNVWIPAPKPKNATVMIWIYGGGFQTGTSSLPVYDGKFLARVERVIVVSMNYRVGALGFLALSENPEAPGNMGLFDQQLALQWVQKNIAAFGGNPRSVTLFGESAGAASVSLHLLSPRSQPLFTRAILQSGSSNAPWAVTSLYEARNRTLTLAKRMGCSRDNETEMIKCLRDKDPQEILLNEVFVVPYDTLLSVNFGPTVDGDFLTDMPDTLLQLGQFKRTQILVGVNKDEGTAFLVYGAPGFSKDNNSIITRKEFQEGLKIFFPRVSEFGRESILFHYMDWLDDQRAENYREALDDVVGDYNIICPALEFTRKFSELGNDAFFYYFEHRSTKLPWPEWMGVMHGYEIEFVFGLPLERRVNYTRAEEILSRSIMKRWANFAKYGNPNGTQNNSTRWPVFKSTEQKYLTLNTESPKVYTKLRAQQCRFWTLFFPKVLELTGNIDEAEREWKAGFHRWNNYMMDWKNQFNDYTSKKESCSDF

Structure (SMILES)	IC50 [µM]
COc1ccc(C2C(=O)Oc3cc(O)ccc32)cc1 (stereo not shown) [Compound 1, 6-Hydroxyl-3–(4′-methoxyphenyl)-benzofuranone]	> 200
COc1cc2c(cc1O)C(c1cc(OC)c(OC)c(OC)c1)C(=O)O2 (stereo not shown) [Compound 23, 5-Hydroxy-6-methoxy-3–(3′,4′,5′-trimethoxyphenyl)-benzofuranone]	> 200
COc1cc(C2C(=O)Oc3c2ccc(O)c3O)cc(OC)c1OC (stereo not shown) [Compound 20, 6,7-Dihydroxy−3–(3′,4′,5′-trimethoxyphenyl)-benzofuranone]	> 200
COc1ccc2c(c1)OC(=O)C2c1cc(OC)c(OC)c(OC)c1 (stereo not shown) [Compound 16, 6-Methoxy-3–(3′,4′,5′-trimethoxyphenyl)-benzofuranone]	> 200
COc1ccc(C2C(=O)Oc3ccc(OC)cc32)cc1 (stereo not shown) [Compound 4, 5-Methoxy-3–(4′-methoxyphenyl)-benzofuranone]	> 200
COc1ccc(C2C(=O)Oc3cc(OC)ccc32)cc1 (stereo not shown) [Compound 3, 6-Methoxy-3–(4′-methoxyphenyl)-benzofuranone]	> 200
COc1ccc(C2C(=O)Oc3cc(O)ccc32)cc1OC (stereo not shown) [Compound 6, 6-Hydroxy-3–(3′,4′-dimethoxyphenyl)-benzofuranone]	> 200

Biological target: AChE from electric eel (Electrophorus electricus, UniProt O42275)
Experiment: biochemical
Assay type: biochemical
Settings: Ellman method, mean ± SD (n = 3), read-out: IC50 value AChE inhibitory activity
Method: as §1

AChE from electric eel, sequence (O42275 24-633): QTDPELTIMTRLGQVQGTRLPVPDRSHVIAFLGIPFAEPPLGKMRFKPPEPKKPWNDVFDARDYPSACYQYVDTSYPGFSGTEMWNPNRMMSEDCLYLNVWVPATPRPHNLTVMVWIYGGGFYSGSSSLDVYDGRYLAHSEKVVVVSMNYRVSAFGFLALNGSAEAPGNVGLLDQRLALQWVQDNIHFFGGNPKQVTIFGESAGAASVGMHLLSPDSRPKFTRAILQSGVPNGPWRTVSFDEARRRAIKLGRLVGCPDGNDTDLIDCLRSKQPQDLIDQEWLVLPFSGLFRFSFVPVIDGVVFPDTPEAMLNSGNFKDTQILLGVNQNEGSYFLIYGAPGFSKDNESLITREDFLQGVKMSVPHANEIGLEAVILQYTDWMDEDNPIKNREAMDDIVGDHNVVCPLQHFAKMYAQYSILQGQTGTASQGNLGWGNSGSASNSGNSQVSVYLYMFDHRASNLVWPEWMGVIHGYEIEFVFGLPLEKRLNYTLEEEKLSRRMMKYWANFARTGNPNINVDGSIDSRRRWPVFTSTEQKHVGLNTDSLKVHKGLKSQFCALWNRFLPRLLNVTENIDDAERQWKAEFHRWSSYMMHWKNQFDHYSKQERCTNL

Structure (SMILES)	IC50
COc1ccc(C2C(=O)Oc3cc(O)ccc32)cc1 (stereo not shown) [Compound 1, 6-Hydroxyl-3–(4′-methoxyphenyl)-benzofuranone]	50.6 ± 3.12 µM
COc1cc2c(cc1O)C(c1cc(OC)c(OC)c(OC)c1)C(=O)O2 (stereo not shown) [Compound 23, 5-Hydroxy-6-methoxy-3–(3′,4′,5′-trimethoxyphenyl)-benzofuranone]	26 ± 1.26 µM
COc1cc(C2C(=O)Oc3c2ccc(O)c3O)cc(OC)c1OC (stereo not shown) [Compound 20, 6,7-Dihydroxy−3–(3′,4′,5′-trimethoxyphenyl)-benzofuranone]	0.089 ± 0.01 µM
COc1ccc2c(c1)OC(=O)C2c1cc(OC)c(OC)c(OC)c1 (stereo not shown) [Compound 16, 6-Methoxy-3–(3′,4′,5′-trimethoxyphenyl)-benzofuranone]	4.07 ± 0.19 µM
COc1ccc(C2C(=O)Oc3ccc(OC)cc32)cc1 (stereo not shown) [Compound 4, 5-Methoxy-3–(4′-methoxyphenyl)-benzofuranone]	< 1 µM and 0.74 µM
COc1ccc(C2C(=O)Oc3cc(OC)ccc32)cc1 (stereo not shown) [Compound 3, 6-Methoxy-3–(4′-methoxyphenyl)-benzofuranone]	80.5 ± 3.41 µM
COc1ccc(C2C(=O)Oc3cc(O)ccc32)cc1OC (stereo not shown) [Compound 6, 6-Hydroxy-3–(3′,4′-dimethoxyphenyl)-benzofuranone]	24.4 ± 1.21 µM

Reference: article PMC7155212 (Journal of Enzyme Inhibition and Medicinal Chemistry, 2020)
